Where a name gives a salt, the structure may show the parent alone.
Tests used:
[1] = target: PIM1 transgenic cells (Ba/F3) (Homo sapiens, UniProt P11309); experiment: Proliferation inhibitory effect on PIM1 transgenic cells; format: cell-based, mouse; settings: proliferation inhibition, 72 hours, Cell Counting Kit-8, read-out: PIM1 IC50
Procedure, shortened: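 Mouse Ba/F3 pro-B cells were retrovirally transduced with human PIM1 so that their proliferation depends on PIM1. Cells were treated with compound at 1–10000 nM final for 72 h, then read by CCK-8 (OD450−OD650). Inhibition was set against DMSO (0%) and no-cell blank (100%), and IC50 was obtained by two-parameter logistic regression.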

[2] = target: T1, PIM1 serine/threonine kinase (Homo sapiens, UniProt P11309); experiment: PIM1 serine/threonine kinase inhibitory effect; format: biochemical; settings: PIM1 serine/threonine kinase activity; ATP 40 μM; 30° C., 30 minutes
T1 construct: purchased Carna Bioscience, Inc
Procedure, shortened: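 Compounds were tested in duplicate from 0.01 to 10000 nM final against PIM1 kinase (0.15 μg/ml). The reaction ran for 30 minutes at 30° C with 40 μM ATP and 0.5 μM biotin-tagged substrate at pH 7.0. Phosphorylation was read by time-resolved FRET (OD665/OD620) after 1 h; IC50 by non-linear fit.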

[3] = test system: graft-versus-host disease model CB6F1 mice; experiment: Lymphocyte proliferation inhibitory effect using graft-versus-host disease model animals (splenomegaly formation); format: in vivo; settings: Mus musculus, 240 h, oral, twice a day for 10 days, GVHD model CB6F1 mice, read-out: Inhibition rate (%) (splenomegaly formation)
Description: BALB/c mice (8-week-aged female) were euthanized, and then the spleen was removed from each mouse. Then, hemolysis treatment was performed to isolate spleen cells. The obtained spleen cells were intravenously transplanted into CB6F1 mice (8-week-aged female), which are C57BL/6 and BALB/c F1 mice, to prepare a model, and splenomegaly was induced. For transplantation, spleen cells for 1.2 BALB/c mouse were used for one CB6F1 mouse.
Each test substance shown in Table 64 was weighed and dissolved in a 0.5% methyl cellulose solution, thereby preparing test substance solutions of 0.3 to 10 mg/mL.
A vehicle (0.5% methyl cellulose solution) or test substance was orally administered to each CB6F1 mouse after transplantation at a dose of 3 to 50 mg/kg in terms of body weight twice a day for 10 days from the day after transplantation. The mouse was euthanized on the 11th day from the start of administration, then the spleen was removed therefrom, and the wet weight of the spleen was measured. For each of CB6F1 mice that had not undergone transplantation as a control group, the wet weight of the spleen was also measured.
The splenomegaly formation inhibition rate when the spleen weights of the mice to which the vehicle was administered after transplantation and the mice on which transplantation had not been performed were 0% and 100%, respectively, was calculated.

T1 sequence (P11309 whole entry): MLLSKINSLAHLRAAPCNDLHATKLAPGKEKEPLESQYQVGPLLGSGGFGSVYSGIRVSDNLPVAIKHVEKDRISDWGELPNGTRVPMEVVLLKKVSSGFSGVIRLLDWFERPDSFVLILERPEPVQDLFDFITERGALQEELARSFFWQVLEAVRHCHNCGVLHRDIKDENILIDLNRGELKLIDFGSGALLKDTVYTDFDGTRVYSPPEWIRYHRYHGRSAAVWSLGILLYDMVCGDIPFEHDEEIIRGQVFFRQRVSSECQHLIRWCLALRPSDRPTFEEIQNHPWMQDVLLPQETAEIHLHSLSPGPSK
Sequence of PIM1 transgenic cells (Ba/F3) (P11309 whole entry, stated change not applied): as the sequence (P11309 whole entry) above

| Compound | GI50 [1] | IC50 [2] | inhibition in vivo at 10 mg/kg ([3]; single dose 10 mg/kg) | inhibition in vivo at 20 mg/kg ([3]; single dose 20 mg/kg) |
| --- | --- | --- | --- | --- |
| C[C@@H]1CNCC[C@@H]1[C@H](C)Nc1cc(-c2n[nH]c(=O)o2)cc(F)c1C(F)(F)F [Example 210, 5-[3-fluoro-5-({(1S)-1-[(3S,4S)-3-methylpiperidin-4-yl]ethyl}amino)-4-(trifluoromethyl)phenyl]-1,3,4-oxadiazol-2(3H)-one] | 15 nM | 1.3 nM | 44.9% | 48.4% |
| C[C@H](Nc1cc(-c2n[nH]c(=O)o2)cc(C#N)c1Cl)C1CCNCC1 [Example 110, 2-chloro-5-(5-oxo-4,5-dihydro-1,3,4-oxadiazol-2-yl)-3-{[(1S)-1-(piperidin-4-yl)ethyl]amino}benzonitrile hydrochloride] | 2100 nM | 3.5 nM | – | – |
| C[C@H](Nc1cc(-c2n[nH]c(=O)o2)cc(F)c1C(F)(F)F)[C@@H]1CCNC[C@@H]1C [Example 211, 5-[3-fluoro-5-({(1S)-1-[(3R,4R)-3-methylpiperidin-4-yl]ethyl}amino)-4-(trifluoromethyl)phenyl]-1,3,4-oxadiazol-2(3H)-one] | 110 nM | 4.9 nM | – | – |
| C[C@@H]([C@H]1CC[C@H](N)CC1)N1CCOc2ccc(-c3n[nH]c(=O)o3)cc21 [Example 247, 5-(4-{(1S)-1-[(1r,4S)-4-aminocyclohexyl]ethyl}-3,4-dihydro-2H-1,4-benzoxazin-6-yl)-1,3,4-oxadiazol-2(3H)-one] | 120 nM | 2.8 nM | – | – |
| C[C@H](Nc1c(F)c(-c2n[nH]c(=O)o2)cc(F)c1Cl)[C@H]1CC[C@H](N)CC1 [Example 169, 5-[3-({(1S)-1-[(1r,4S)-4-aminocyclohexyl]ethyl}amino)-4-chloro-2,5-difluorophenyl]-1,3,4-oxadiazol-2(3H)-one hydrochloride] | 310 nM | 6.5 nM | – | – |
| N[C@H]1CC[C@H](CCc2cc(-c3n[nH]c(=O)o3)ccc2C(F)(F)F)CC1 [Example 27, 5-[3-{2-[(1r,4s)-4-aminocyclohexyl]ethyl}-4-(trifluoromethyl)phenyl]-1,3,4-oxadiazol-2(3H)-one hydrochloride] | 200 nM | 4.1 nM | – | – |
| C[C@H](Nc1cc(-c2n[nH]c(=O)o2)cc(F)c1OC(F)F)C1(C)CCNCC1 [Example 213, 5-[4-(difluoromethoxy)-3-fluoro-5-{[(1S)-1-(4-methylpiperidin-4-yl)ethyl]amino}phenyl]-1,3,4-oxadiazol-2(3H)-one] | 85 nM | 2 nM | – | – |
| CC1(C)[C@@H](CNc2cc(-c3n[nH]c(=O)o3)ccc2C(F)(F)F)C[C@H]1N [Example 176, 5-[3-({[(1S,3R)-3-amino-2,2-dimethylcyclobutyl]methyl}amino)-4-(trifluoromethyl)phenyl]-1,3,4-oxadiazol-2(3H)-one] | 88 nM | 9.6 nM | – | – |
| CC1(CCNc2cc(-c3n[nH]c(=O)o3)ccc2C(F)(F)F)CCNCC1 [Example 70, 5-[3-{[2-(4-methylpiperidin-4-yl)ethyl]amino}-4-(trifluoromethyl)phenyl]-1,3,4-oxadiazol-2(3H)-one hydrochloride] | 1700 nM | 4.2 nM | – | – |
| N[C@H]1CC[C@@H](CNc2cc(-c3n[nH]c(=O)o3)ccc2C(F)(F)F)CC1 [Example 74, 5-[3-({[(1s,4s)-4-aminocyclohexyl]methyl}amino)-4-(trifluoromethyl)phenyl]-1,3,4-oxadiazol-2(3H)-one hydrochloride] | 150 nM | 2.2 nM | – | – |
| C[C@H](Nc1cc(-c2n[nH]c(=O)o2)ccc1C(F)(F)F)C1CC2(CCNCC2)C1 [Example 142, 5-[3-{[(1S)-1-(7-azaspiro[3.5]nonan-2-yl)ethyl]amino}-4-(trifluoromethyl)phenyl]-1,3,4-oxadiazol-2(3H)-one hydrochloride] | 220 nM | 11 nM | – | – |
| N[C@H]1CC[C@H](Nc2cc(-c3n[nH]c(=O)o3)ccc2Br)CC1 [Example 35, 5-(3-{[(1r,4r)-4-aminocyclohexyl]amino}-4-bromophenyl)-1,3,4-oxadiazol-2(3H)-one hydrochloride] | 510 nM | 4.9 nM | – | – |
| C[C@H](Nc1cc(-c2n[nH]c(=O)o2)cc(F)c1OC(F)F)C1CCNCC1 [Example 212, 5-[4-(difluoromethoxy)-3-fluoro-5-{[(1S)-1-(piperidin-4-yl)ethyl]amino}phenyl]-1,3,4-oxadiazol-2(3H)-one] | 73 nM | 2.1 nM | – | – |
| N[C@H]1CC[C@H](COc2cc(-c3n[nH]c(=O)o3)ccc2Br)CC1 [Example 238, 5-(3-{[(1r,4r)-4-aminocyclohexyl]methoxy}-4-bromophenyl)-1,3,4-oxadiazol-2(3H)-one] | 87 nM | 2.5 nM | – | – |
| CN(CC1CCNCC1)c1cc(-c2n[nH]c(=O)o2)ccc1C(F)(F)F [Example 51, 5-[3-{methyl[(piperidin-4-yl)methyl]amino}-4-(trifluoromethyl)phenyl]-1,3,4-oxadiazol-2(3H)-one hydrochloride] | 3100 nM | 14 nM | – | – |
| CC(CC1CCNCC1)Nc1cc(-c2n[nH]c(=O)o2)ccc1C(F)(F)F (stereo not shown) [Example 81, 5-[3-{[1-(piperidin-4-yl)propan-2-yl]amino}-4-(trifluoromethyl)phenyl]-1,3,4-oxadiazol-2(3H)-one hydrochloride] | 600 nM | 4.3 nM | – | – |
| CN(C[C@H]1CC[C@H](N)CC1)c1cc(-c2n[nH]c(=O)o2)ccc1C(F)(F)F [Example 130, 5-{3-[{[(1r,4r)-4-aminocyclohexyl]methyl}(methyl)amino]-4-(trifluoromethyl)phenyl}-1,3,4-oxadiazol-2(3H)-one hydrochloride] | 280 nM | 19 nM | – | – |
| C[C@H](Nc1cc(-c2n[nH]c(=O)o2)cc(F)c1OC(F)(F)F)[C@H]1C[C@@H](N)C1 [Example 180, 5-[3-({(1S)-1-[(1s,3R)-3-aminocyclobutyl]ethyl}amino)-5-fluoro-4-(trifluoromethoxy)phenyl]-1,3,4-oxadiazol-2(3H)-one hydrochloride] | 30 nM | 2.2 nM | – | – |
| C[C@@H]1CNCC[C@@H]1[C@H](C)N1CCC(=O)c2c(F)cc(-c3n[nH]c(=O)o3)cc21 [Example 245, 5-fluoro-1-{(1S)-1-[(3S,4S)-3-methylpiperidin-4-yl]ethyl}-7-(5-oxo-4,5-dihydro-1,3,4-oxadiazol-2-yl)-2,3-dihydroquinolin-4(1H)-one hydrochloride] | 3200 nM | 4.2 nM | – | – |
| CC(C)(CN)C1CCN(c2cc(-c3n[nH]c(=O)o3)ccc2C(F)(F)F)CC1 [Example 13, 5-{3-[4-(1-amino-2-methylpropan-2-yl)piperidin-1-yl]-4-(trifluoromethyl)phenyl}-1,3,4-oxadiazol-2(3H)-one] | 540 nM | 30 nM | – | – |
| C[C@H]1CN([C@@H](C)C2CCNCC2)c2cc(-c3n[nH]c(=O)o3)cc(F)c2O1 [Example 251, 5-{(2S)-8-fluoro-2-methyl-4-[(1S)-1-(piperidin-4-yl)ethyl]-3,4-dihydro-2H-1,4-benzoxazin-6-yl}-1,3,4-oxadiazol-2(3H)-one] | 260 nM | 12 nM | – | – |
| C[C@H](Nc1nc(-c2n[nH]c(=O)o2)ccc1C(F)(F)F)C1CCNCC1 [Example 114, 5-[6-{[(1S)-1-(piperidin-4-yl)ethyl]amino}-5-(trifluoromethyl)pyridin-2-yl]-1,3,4-oxadiazol-2(3H)-one hydrochloride hydrochloride] | 300 nM | 8.4 nM | – | – |
| NCCC1CCN(c2cc(-c3n[nH]c(=O)o3)ccc2C(F)(F)F)CC1 [Example 10, 5-{3-[4-(2-aminoethyl)piperidin-1-yl]-4-(trifluoromethyl)phenyl}-1,3,4-oxadiazol-2(3H)-one hydrochloride] | 630 nM | 6.6 nM | – | – |
| Cc1c(Cl)cc(-c2n[nH]c(=O)o2)cc1N[C@@H](C)C1CCNCC1 [Example 98, 5-(3-chloro-4-methyl-5-{[(1S)-1-(piperidin-4-yl)ethyl]amino}phenyl)-1,3,4-oxadiazol-2(3H)-one dihydrochloride] | 79 nM | 2 nM | – | – |
| NCCC1CCN(c2cc(-c3n[nH]c(=O)o3)cc3[nH]ncc23)CC1 [Example 12, 5-{4-[4-(2-aminoethyl)piperidin-1-yl]-1H-indazol-6-yl}-1,3,4-oxadiazol-2(3H)-one dihydrochloride] | 5100 nM | 13 nM | – | – |

From patent publication US20220024921A1, “1,3,4-OXADIAZOLONE COMPOUND AND PHARMACEUTICAL” (NIPPON SHINYAKU CO., LTD., priority 2018, published 2022)
